Data set [1] has as its target Axl (Homo sapiens (Human), UniProt P30530). The experiment in a line: Axl kinase inhibition assay (Cisbio method, Eu-labeled antibody to phosphorylated peptide). The conditions noted are these: read-out: IC50 (μM) Axl; 1 hour reaction with substrate peptide and ATP.
Experimental: For evaluation of inhibitory activities of the compounds according to the present invention on Tyro 3, Axl, and Mer, the following test was carried out.
The specific test method followed the method provided by Cisbio. The compounds of the examples were prepared at various concentrations, followed by addition of Tyro 3, Axl, or Mer and substrate peptides, and then ATP was added to initiate a reaction. After 1 hour, the reaction was stopped by addition of a solution containing EDTA. Thereafter, the amount of phosphorylated peptides was measured. Here, the phosphorylated peptides were treated with an europium (Eu)-labeled antibody recognizing phosphorylated peptides, and then after 1 hour, excited by irradiation of the light of a wavelength of 320 or 340 nm using an Envision Reader.
For data set [2], the target named is hERG (Homo sapiens (Human), UniProt Q12809). The experiment in a line: human ether-a-go-go-related gene (hERG) assay. The conditions noted are these: for hERG toxicity: result in words. Here is the method:
In the development of medicines, drug toxicity as well as therapeutic effects plays an important role. One of the most commonly used criteria for determining drug toxicity is human ether-a-go-go-related gene (hERG) toxicity. Most pharmaceutical companies determine a drug showing a hERG IC50 value of less than 0.1 μM to be highly toxic, and thus stop the development of the drug. Whereas, the companies determine a drug showing a hERG IC50 value of 10 μM or more to be non-toxic.
For investigation of the degree of drug toxicity by TAM receptor inhibiting compounds of the present invention, human ether-a-go-go-related gene (hERG) assay was performed on Compounds 29, 60, 73, 75, 84, 89, and 132 on Table 4.

The structures appear in SMILES notation.

The IC50 is the concentration that gives 50% inhibition.

Axl, sequence (P30530 26-894): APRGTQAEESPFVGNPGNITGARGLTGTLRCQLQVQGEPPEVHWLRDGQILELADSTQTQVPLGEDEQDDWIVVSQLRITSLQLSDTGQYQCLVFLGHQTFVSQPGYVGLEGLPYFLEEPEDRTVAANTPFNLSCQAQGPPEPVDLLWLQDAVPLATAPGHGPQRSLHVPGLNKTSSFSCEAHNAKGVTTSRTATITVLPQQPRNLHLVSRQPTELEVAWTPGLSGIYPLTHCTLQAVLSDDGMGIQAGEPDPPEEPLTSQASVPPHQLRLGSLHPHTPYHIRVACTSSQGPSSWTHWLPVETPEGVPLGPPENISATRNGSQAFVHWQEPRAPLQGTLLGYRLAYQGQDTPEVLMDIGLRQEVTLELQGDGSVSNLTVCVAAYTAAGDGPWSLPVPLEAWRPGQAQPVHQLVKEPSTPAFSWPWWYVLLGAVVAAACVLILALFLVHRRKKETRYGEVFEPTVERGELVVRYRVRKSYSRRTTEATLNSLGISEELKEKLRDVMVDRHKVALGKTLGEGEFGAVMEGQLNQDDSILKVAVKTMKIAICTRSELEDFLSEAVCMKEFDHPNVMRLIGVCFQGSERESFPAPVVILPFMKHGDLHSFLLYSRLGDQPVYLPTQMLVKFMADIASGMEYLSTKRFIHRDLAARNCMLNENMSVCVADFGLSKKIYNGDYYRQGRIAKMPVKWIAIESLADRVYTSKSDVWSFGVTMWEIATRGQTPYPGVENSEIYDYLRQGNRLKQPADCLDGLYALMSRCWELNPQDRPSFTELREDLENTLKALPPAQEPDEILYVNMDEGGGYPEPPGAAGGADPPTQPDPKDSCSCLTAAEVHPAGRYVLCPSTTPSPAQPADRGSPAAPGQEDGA
hERG, sequence (Q12809 whole entry): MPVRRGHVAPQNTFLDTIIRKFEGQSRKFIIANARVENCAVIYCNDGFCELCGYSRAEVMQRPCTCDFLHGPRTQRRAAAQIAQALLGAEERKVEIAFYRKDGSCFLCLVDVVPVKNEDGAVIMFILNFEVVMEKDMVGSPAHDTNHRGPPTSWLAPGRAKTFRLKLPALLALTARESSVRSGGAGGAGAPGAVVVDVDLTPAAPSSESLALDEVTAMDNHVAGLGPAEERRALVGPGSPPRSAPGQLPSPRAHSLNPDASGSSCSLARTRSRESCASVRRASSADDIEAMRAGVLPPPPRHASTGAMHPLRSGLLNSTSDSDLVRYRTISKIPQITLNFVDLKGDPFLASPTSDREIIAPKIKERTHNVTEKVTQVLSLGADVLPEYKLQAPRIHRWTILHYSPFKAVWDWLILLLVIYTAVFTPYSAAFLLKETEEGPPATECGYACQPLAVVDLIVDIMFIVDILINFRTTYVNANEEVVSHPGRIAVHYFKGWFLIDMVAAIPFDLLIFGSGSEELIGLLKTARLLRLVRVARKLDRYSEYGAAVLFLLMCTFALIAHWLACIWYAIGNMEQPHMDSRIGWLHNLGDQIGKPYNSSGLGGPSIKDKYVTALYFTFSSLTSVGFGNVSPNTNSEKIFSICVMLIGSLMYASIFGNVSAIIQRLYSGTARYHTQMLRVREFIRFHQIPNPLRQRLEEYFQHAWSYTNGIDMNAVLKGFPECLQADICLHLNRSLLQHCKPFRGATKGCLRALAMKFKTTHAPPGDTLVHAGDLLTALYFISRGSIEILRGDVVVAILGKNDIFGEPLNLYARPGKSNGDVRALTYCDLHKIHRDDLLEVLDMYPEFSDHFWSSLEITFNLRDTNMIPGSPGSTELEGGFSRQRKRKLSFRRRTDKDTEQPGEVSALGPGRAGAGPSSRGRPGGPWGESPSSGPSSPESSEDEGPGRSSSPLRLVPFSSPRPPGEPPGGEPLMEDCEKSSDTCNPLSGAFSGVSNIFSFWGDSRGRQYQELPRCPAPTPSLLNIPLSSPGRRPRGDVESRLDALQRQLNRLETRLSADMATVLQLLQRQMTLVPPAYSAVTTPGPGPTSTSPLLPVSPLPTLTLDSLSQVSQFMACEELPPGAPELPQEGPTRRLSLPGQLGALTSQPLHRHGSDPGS

As to `Cc1ccc(Nc2ncc(-c3ccc(C)cc3)c(NC3CCCCC3)n2)cc1` [Compound 2, N4-cyclohexyl-N2,5-di-(p-tolyl)pyrimidine-2,4-diamine], the IC50 in data set [1] was > 10 µM.
As for `Cn1cc(-c2cnc(Nc3ccccc3)nc2NC2CCCCC2)cn1` [Compound 6, N4-cyclohexyl-5-(1-methyl-1H-pyrazol-4-yl)-N2-phenylpyrimidine-2,4-diamine], in data set [1], the IC50 is > 10 µM.
On to `COc1ccc(Nc2ncc(-c3cnn(C)c3)c(NC3CCCCC3)n2)cc1Cl` [Compound 9, N2-(3-chloro-4-methoxyphenyl)-N4-cyclohexyl-5-(1-methyl-1H-pyrazol-4-yl)pyrimidine-2,4-diamine], for which, in data set [1], the IC50 is > 10 µM.
For `Cc1ccc(Nc2ncc(-c3ccoc3)c(NC3CCCCC3)n2)cc1` [Compound 14, N4-cyclohexyl-5-(furan-3-yl)-N2-(p-tolyl)pyrimidine-2,4-diamine], the IC50 in data set [1] is > 10 µM.
Consider `Clc1cc(Cl)cc(Nc2ncc(-c3ccoc3)c(NC3CCCCC3)n2)c1` [Compound 15, N4-cyclohexyl-N2-(3,5-dichlorophenyl)-5-(furan-3-yl)pyrimidine-2,4-diamine], for which the IC50 in data set [1] was > 10 µM.
As for `Cn1cc(-c2cnc(NCCc3ccncc3)nc2NC2CCCCC2)cn1` [Compound 17], in data set [1], the IC50 was > 10 µM.
On the same count and under the same terms, under `Cn1cc(-c2cnc(NC34CC5CC(CC(C5)C3)C4)nc2NC2CCCCC2)cn1` [Compound 23, N4-cyclohexyl-N2-adamantyl-5-(1-methyl-1H-pyrazol-4-yl)pyrimidine-2,4-diamine] stands > 10 µM.
Regarding `Cn1cc(-c2cnc(Nc3cc(Cl)cc(Cl)c3)nc2NC2CCNCC2)cn1` [Compound 29, N2-(3,5-dichlorophenyl)-5-(1-methyl-1H-pyrazol-4-yl)-N4-(piperidin-4-yl)pyrimidine-2,4-diamine], in data set [2], the IC50 is ≤ 1 µM.
On to `Cc1cc(Nc2ncc(-c3cnn(C)c3)c(NC3CCN(C(=O)C(F)(F)F)CC3)n2)ccc1Cl` [Compound 43, 1-(4-(2-(3-methyl-4-chlorophenylamino)-5-(1-methyl-1H-pyrazol-4-yl)pyrimidin-4-ylamino)piperidin-1-yl)-2,2,2-trifluoroethanone], for which the IC50 in data set [1] is > 10 µM.
For the compound `COc1ccc(Nc2ncc(-c3cnn(C)c3)c(NC3CCN(C(=O)C(F)(F)F)CC3)n2)cc1` [Compound 44, 1-(4-(2-(4-methoxyphenylamino)-5-(1-methyl-1H-pyrazol-4-yl)pyrimidin-4-ylamino)piperidin-1-yl)-2,2,2-trifluoroethanone], in data set [1], the IC50 was > 10 µM.
On the same count and under the same terms, as for `COc1ccc(Nc2ncc(-c3cnn(C)c3)c(NC3CCNCC3)n2)cc1` [Compound 47, N2-(4-methoxyphenyl)-5-(1-methyl-1H-pyrazol-4-yl)-N4-(piperidin-4-yl)pyrimidine-2,4-diamine], the figure is > 10 µM; as for `Cc1ccc(Nc2ncc(-c3ccoc3)c(NC3CCN(C(=O)C(F)(F)F)CC3)n2)cc1` [Compound 49, 1-(4-(2-(p-toluidino)-5-(furan-3-yl)pyrimidin-4-ylamino)piperidin-1-yl)-2,2,2-trifluoroethanone], > 10 µM.
As for `Cc1cccc(Nc2ncc(-c3ccoc3)c(NC3CCN(C(=O)C(F)(F)F)CC3)n2)c1` [Compound 50, 1-(4-(2-(m-toluidino)-5-(furan-3-yl)pyrimidin-4-ylamino)piperidin-1-yl)-2,2,2-trifluoroethanone], the IC50 in data set [1] was > 10 µM.
As to `COc1cccc(-c2cnc(Nc3cc(Cl)cc(Cl)c3)nc2NC2CCNCC2)c1` [Compound 60, N2-(3,5-dichlorophenyl)-5-(3-methoxyphenyl)-N4-(piperidin-4-yl)pyrimidine-2,4-diamine], the IC50 in data set [2] is ≤ 1 µM.
As for `COc1ccc(Nc2ncc(-c3ccc(OC)c(OC)c3)c(NC3CCN(C(=O)C(F)(F)F)CC3)n2)cc1` [Compound 64, 1-(4-(5-(3,4-dimethoxyphenyl)-2-(4-methoxyphenylamino)pyrimidin-4-ylamino)piperidin-1-yl)-2,2,2-trifluoroethanone], in data set [1], the IC50 was > 10 µM.
`COc1ccccc1Nc1ncc(-c2ccc(OC)c(OC)c2)c(NC2CCNCC2)n1` [Compound 68, 5-(3,4-dimethoxyphenyl)-N2-(2-methoxyphenyl)-N4-(piperidin-4-yl)pyrimidine-2,4-diamine]: the IC50 in data set [1] is > 10 µM.
Turning to `COc1ccc(-c2cnc(Nc3cccc(Cl)c3)nc2NC2CCN(C(=O)C(F)(F)F)CC2)cc1OC` [Compound 69, 1-(4-(2-(3-chlorophenylamino)-5-(3,4-dimethoxyphenyl)pyrimidin-4-ylamino)piperidin-1-yl)-2,2,2-trifluoroethanone], the IC50 in data set [1] was > 10 µM.
Turning to `Cn1cc(-c2cnc(Nc3ccc4c(c3)CN(C(=O)C(F)(F)F)CC4)nc2NC2CCN(C(=O)C(F)(F)F)CC2)cn1` [Compound 70, 1-(4-(5-(1-methyl-1H-pyrazol-4-yl)-2-(2-(2,2,2-trifluoroacetyl)-1,2,3,4-tetrahydroisoquinolin-7-ylamino)pyrimidin-4-ylamino)piperidin-1-yl)-2,2,2-trifluoroethanone], the IC50 in data set [1] is > 10 µM.
Consider `O=C(N1CCC(Nc2nc(Nc3cc(Cl)cc(Cl)c3)ncc2-c2cnn(CCO)c2)CC1)C(F)(F)F` [Compound 71, 1-(4-(2-(3,5-dichlorophenylamino)-5-(1-(2-hydroxyethyl)-1H-pyrazol-4-yl)pyrimidin-4-ylamino)piperidin-1-yl)-2,2,2-trifluoroethanone], for which, in data set [1], the IC50 is > 10 µM.
With `Clc1cc(Cl)cc(Nc2ncc(-c3cnn(C4CCNCC4)c3)c(NC3CCNCC3)n2)c1` [Compound 73, N2-(3,5-dichlorophenyl)-N4-(piperidin-4-yl)-5-(1-(piperidin-4-yl)-1H-pyrazol-4-yl)pyrimidine-2,4-diamine], the IC50 in data set [2] is ≥ 50 µM.
Take `OCCn1cc(-c2cnc(Nc3cc(Cl)cc(Cl)c3)nc2NC2CCNCC2)cn1` [Compound 75, 2-(4-(2-(3,5-dichlorophenylamino)-4-(piperidin-4-ylamino)pyrimidin-5-yl)-1H-pyrazol-1-yl)ethanol]: the IC50 in data set [2] is ≥ 50 µM.
For the compound `Cn1cc(-c2cnc(Nc3cc(Cl)cc(Cl)c3)nc2Nc2ccc3c(c2)CNCC3)cn1` [Compound 84, N2-(3,5-dichlorophenyl)-5-(1-methyl-1H-pyrazol-4-yl)-N4-(1,2,3,4-tetrahydroisoquinolin-7-yl)pyrimidine-2,4-diamine], the hERG toxicity entry in data set [2] was “no hERG toxicity”.
Regarding `Cn1cc(-c2cnc(Nc3ccc4c(c3)CN(C(=O)C(F)(F)F)CC4)nc2N[C@H]2CC[C@@H](NC(=O)C(F)(F)F)CC2)cn1` [Compound 86, N-((1s,4s)-4-(5-(1-methyl-1H-pyrazol-4-yl)-2-(2-(2,2,2-trifluoroacetyl)-1,2,3,4-tetrahydroisoquinolin-7-ylamino)pyrimidin-4-ylamino)cyclohexyl)-2,2,2-trifluoroacetamide], the IC50 in data set [1] was > 10 µM.
In the case of `Cn1cc(-c2cnc(Nc3ccc4c(c3)CNCC4)nc2N[C@H]2CC[C@@H](N)CC2)cn1` [Compound 88, N4-((1s,4s)-4-aminocyclohexyl)-5-(1-methyl-1H-pyrazol-4-yl)-N2-(1,2,3,4-tetrahydroisoquinolin-7-yl)pyrimidin-2,4-diamine], the IC50 in data set [1] is > 10 µM.
As to `OCCn1cc(-c2cnc(Nc3cc(Cl)cc(Cl)c3)nc2Nc2ccc3c(c2)CNCC3)cn1` [Compound 89, 2-(4-(2-(3,5-dichlorophenylamino)-4-(1,2,3,4-tetrahydroisoquinolin-7-ylamino)pyrimidin-5-yl)-1H-pyrazol-1-yl)ethanol], the hERG toxicity result in data set [2] is recorded as “no hERG toxicity”.
With `O=C(NC1CCC(Nc2nc(Nc3cc(Cl)cc(Cl)c3)ncc2-c2cnn(C3CCNCC3)c2)CC1)C(F)(F)F` (stereo not shown) [Compound 122, 1-(4-(2-(3,5-dichlorophenylamino)-5-(1-(piperidin-4-yl)-1H-pyrazol-4-yl)pyrimidin-4-ylamino)cyclohexyl)-2,2,2-trifluoroacetamide], the IC50 in data set [1] is > 10 µM.
Same read-out and setting: as for `O=C(N1CCc2ccc(Nc3nc(Nc4cc(C(F)(F)F)cc(C(F)(F)F)c4)ncc3-c3cnn(CCO)c3)cc2C1)C(F)(F)F` [Compound 124, 1-(7-(2-(3,5-bis(trifluoromethyl)phenylamino)-5-(1-(2-hydroxyethyl)-1H-pyrazol-4-yl)pyrimidin-4-ylamino)-3,4-dihydroisoquinolin-2(1H)-yl)-2,2,2-trifluoroethanone], the figure is > 10 µM; as for `O=C(N1CCc2ccc(Nc3nc(Nc4cccc(Cl)c4Cl)ncc3-c3cnn(CCO)c3)cc2C1)C(F)(F)F` [Compound 125, 1-(7-(2-(2,3-dichlorophenylamino)-5-(1-(2-hydroxyethyl)-1H-pyrazol-4-yl)pyrimidin-4-ylamino)-3,4-dihydroisoquinolin-2(1H)-yl)-2,2,2-trifluoroethanone], > 10 µM.
`Clc1cc(Cl)cc(Nc2ncc(-c3cnn(C4CCNCC4)c3)c(Nc3ccc4c(c3)CNCC4)n2)c1` [Compound 132, N2-(3,5-dichlorophenyl)-5-(1-(piperidin-4-yl)-1H-pyrazol-4-yl)-N4-(1,2,3,4-tetrahydroisoquinolin-7-yl)pyrimidine-2,4-diamine]: the hERG toxicity entry in data set [2] is listed as “no hERG toxicity”.
With `Cn1cc(-c2cnc(Nc3cc(C(F)(F)F)cc(C(F)(F)F)c3)nc2Nc2ccc3c(c2)CNCC3)cn1` [Compound 136, N2-(3,5-bis(trifluoromethyl)phenyl)-5-(1-methyl-1H-pyrazol-4-yl)-N4-(1,2,3,4-tetrahydroisoquinolin-7-yl)pyrimidine-2,4-diamine], the IC50 in data set [1] is > 10 µM.
The same measure, in the same setting: as for `COc1cc(Nc2ncc(-c3cnn(C)c3)c(Nc3ccc4c(c3)CN(C(=O)C(F)(F)F)CC4)n2)cc(OC)c1` [Compound 138, 1-(7-(2-(3,5-dimethoxyphenylamino)-5-(1-methyl-1H-pyrazol-4-yl)pyrimidin-4-ylamino)-3,4-dihydroisoquinolin-2(1H)-yl)-2,2,2-trifluoroethan-1-one], the figure is > 10 µM.

Source of the values: patent publication US11053225B2, “Pyrimidine derivative compound, optical isomer thereof, or pharmaceutically acceptable salt thereof, and composition for preventing or treating Tyro 3 related disease comprising same as active ingredient” (KOREA RESEARCH INSTITUTE OF CHEMICAL TECHNOLOGY, priority 2017, dated 2021).
